Source: US10287313B2, “RNA monomers containing 0-acetal levulinyl ester groups and their use in RNA microarrays” (THE ROYAL INSTITUTION FOR THE ADVANCEMENT OF …, priority 2008, dated 2019)
In the oligonucleotide strings, read from the 5' end, every base follows the letter of its sugar. An asterisk marks phosphorothioate; unmarked linkages are phosphodiester. Other units and linkages are bracketed, terminal groups are in braces. A string of capitals states the bases alone. d = 2'-deoxy (DNA); r = 2'-OH (RNA)

How the values were obtained:
[1] = Tm of 21-nt RNAs synthesized from various chemistries; format: physicochemical; settings: base sequence r(GCUUGAAGUCUUUAAUUAA)-d(TT)
luciferase mRNA = assay: RNAi assay that targets luciferase mRNA (luciferase gene knockdown by siRNA duplexes); format: cell-based; settings: antisense strand annealed to common sense strand synthesized via 2′-TBDMS chemistry; light units relative to Renilla control; compared with TBDMS, TOM and ACE derived duplexes
Source text: The fully deprotected antisense strands were synthesized by TBDMS, TOM, ACE and ALE chemistries, whereas the complementary sense strand of the siRNA duplex was synthesized by TBDMS chemistry.
As a final check, we evaluated the activity of all RNAs synthesized in an RNAi assay that targets luciferase mRNA (Dowler, T. et al. Nucleic Acids Res 2006, 34, 1669-75). Each of the antisense strands prepared by the various chemistries were allowed to anneal to a common sense strand synthesized via 2′-TBDMS chemistry.

Substance	Tm [1] [°C]	gene silencing activity (luciferase gene knockdown) (luciferase mRNA)
r(GCUUGAAGUCUUUAAUUAA)-d(TT) [ACE] (antisense rGrCrUrUrGrArArGrUrCrUrUrUrArArUrUrArAdTdT) [21-nt antisense siRNA strand from 2′-O-ACE chemistry, crude RNA purchased from Dharmacon]	59.5	–
r(GCUUGAAGUCUUUAAUUAA)-d(TT) [ALE] (antisense rGrCrUrUrGrArArGrUrCrUrUrUrArArUrUrArAdTdT) [21-nt antisense siRNA strand synthesized from 2′-O-ALE chemistry]	59.4	same gene silencing activity
r(GCUUGAAGUCUUUAAUUAA)-d(TT) [TOM] (antisense rGrCrUrUrGrArArGrUrCrUrUrUrArArUrUrArAdTdT) [21-nt antisense siRNA strand synthesized from 2′-O-TOM chemistry]	60.1	–
r(GCUUGAAGUCUUUAAUUAA)-d(TT) [TBDMS] (RNA, 3' dTdT, backbone not given here) [21-nt antisense siRNA strand synthesized from 2′-O-TBDMS chemistry]	59.8	–
